Results as given in ChEMBL document CHEMBL1136085, “Structure-activity study of novel tricyclic benzazepine arginine vasopressin antagonists” (Bioorg Med Chem Lett, 2003).

Key:
Vasopressin V2 receptor = Vasopressin V2 receptor (Rattus norvegicus, UniProt Q00788); assay: Inhibition of [3H]AVP binding to Dawley rat kidney medullary vasopressin V2 receptor.
Vasopressin V1a receptor [1] = target: T1, Vasopressin V1a receptor (Rattus norvegicus, UniProt P30560); assay: Inhibition of [3H]AVP binding to Dawley rat hepatic vasopressin V1a receptor.
T1 sequence (P30560 whole entry): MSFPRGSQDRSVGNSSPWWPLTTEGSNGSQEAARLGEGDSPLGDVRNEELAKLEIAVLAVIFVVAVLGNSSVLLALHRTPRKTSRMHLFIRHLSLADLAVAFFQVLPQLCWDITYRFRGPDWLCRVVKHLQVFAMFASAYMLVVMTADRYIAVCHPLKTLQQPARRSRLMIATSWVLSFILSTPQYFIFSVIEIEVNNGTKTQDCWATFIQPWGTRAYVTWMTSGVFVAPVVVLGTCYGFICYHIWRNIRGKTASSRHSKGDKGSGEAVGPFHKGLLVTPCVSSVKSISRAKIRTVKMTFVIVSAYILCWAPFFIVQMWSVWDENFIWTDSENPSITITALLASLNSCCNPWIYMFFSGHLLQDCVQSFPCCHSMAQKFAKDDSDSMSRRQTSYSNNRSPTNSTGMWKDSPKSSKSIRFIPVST

[2] = target: Vasopressin V2 receptor (Rattus norvegicus) (UniProt Q00788); assay: Compound was tested for the inhibition of [3H]AVP binding to Dawley rat kidney medullary Vasopressin V2 receptor; settings: concentration not given here
Chain of Vasopressin V2 receptor (Rattus norvegicus) (Q00788 whole entry): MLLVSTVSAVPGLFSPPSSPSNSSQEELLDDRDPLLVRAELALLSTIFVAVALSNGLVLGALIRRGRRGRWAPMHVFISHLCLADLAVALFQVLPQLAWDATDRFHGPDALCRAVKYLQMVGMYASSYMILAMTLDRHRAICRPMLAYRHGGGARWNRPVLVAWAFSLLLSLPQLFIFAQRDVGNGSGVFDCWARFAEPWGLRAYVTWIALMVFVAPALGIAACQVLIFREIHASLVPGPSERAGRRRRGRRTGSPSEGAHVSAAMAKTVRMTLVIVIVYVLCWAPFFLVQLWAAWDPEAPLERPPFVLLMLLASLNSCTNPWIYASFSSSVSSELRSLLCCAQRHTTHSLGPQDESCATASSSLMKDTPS

Vasopressin V1a receptor [3] = target: T1, Vasopressin V1a receptor; assay: Compound was tested for the inhibition of [3H]AVP binding to Dawley […]
[4] = target: Vasopressin V1a receptor (Rattus norvegicus) (UniProt P30560); assay: Compound was tested for the inhibition of [3H]AVP binding to Dawley rat hepatic Vasopressin V1a receptor; settings: concentration not given here
Chain of Vasopressin V1a receptor (Rattus norvegicus) (P30560 whole entry, looked up): as the sequence (P30560 whole entry) above

Rattus norvegicus [5] = assay: Aquaretic effect was measured by the amount of urine collected after 4 hr at a dose of 10 mg/kg ip in 2 Dawley rats; type: functional; settings: route intraperitoneal
Rattus norvegicus [6] = assay: Aquaretic effect was measured by the amount of urine collected after 4 hr at a dose of 30 mg/kg ip in 6 Dawley rats; type: functional; settings: route intraperitoneal

Chain of Vasopressin V2 receptor (Q00788 whole entry): as the sequence (Q00788 whole entry) above

Row | IC50 (Vasopressin V2 receptor) | IC50 (Vasopressin V1a receptor [1]) | SMILES | also measured
1 | 4 nM | 7 nM | O=C(Nc1ccc(C(=O)N2Cc3cccn3Cc3ccccc32)cc1)c1ccc(F)cc1Cl | –
2 | 50000 nM | – | Cc1ccccc1C(=O)Nc1ccc(C(=O)N2Cc3ccccc3CCc3ccccc32)cc1 | inhibition [2]: 80%; IC50 (Vasopressin V1a receptor [3]): 50000 nM; inhibition [4]: 60%
3 | 1.5 nM | – | Cc1ccc(F)cc1C(=O)Nc1ccc(C(=O)N2Cc3cccn3Cc3ccccc32)cc1 | Urine volume (Rattus norvegicus [5]): 21.8 ml 4hr-1
4 | 860 nM | 2500 nM | Cc1ccccc1C(=O)Nc1ccc(C(=O)N2c3ccccc3CCc3ccccc32)cc1 | –
5 | – | – | Cc1ccc(F)cc1C(=O)Nc1ccc(C(=O)N2Cc3cccn3Cc3ccccc32)c(Cl)c1 [LIXIVAPTAN] | Urine volume (Rattus norvegicus [5]): 22 ml 4hr-1
6 | – | – | O=C(Nc1ccc(C(=O)N2Cc3cccn3Cc3ccccc32)cc1)c1ccccc1Cl | Urine volume (Rattus norvegicus [5]): 12.4 ml 4hr-1
7 | 7 nM | 2 nM | O=C(Nc1ccc(C(=O)N2Cc3cccn3Cc3ccccc32)cc1)c1ccccc1Br | –
8 | 1700 nM | 1500 nM | Cc1ccccc1C(=O)Nc1ccc(C(=O)N2Cc3ccccc3Oc3ccccc32)cc1 | –
9 | 540 nM | – | O=C(Nc1ccc(C(=O)N2Cc3cccn3Cc3ccccc32)cc1)c1ccccc1O | –
10 | – | – | Cc1ccccc1C(=O)Nc1ccc(C(=O)N2Cc3ccccc3Nc3ccccc32)cc1 | Urine volume (Rattus norvegicus [6]): 7.4 ml 4hr-1
11 | 13 nM | 240 nM | Cc1cccc(C(=O)Nc2ccc(C(=O)N3Cc4cccn4Cc4ccccc43)cc2)c1C | –
